{"source": "patent US20230165842A1", "about": "“NEW USES” (priority 2020, published 2023)", "origin": "cited, not measured here", "key": {"[1]": {"test_system": "patients hospitalized with COVID-19", "details": "With Calcifediol Treatment (n = 50)"}, "[2]": {"test_system": "SARS-CoV-2", "details": "treated 24 hours prior to infection; read-out: IC50 in Vero"}, "[3]": {"test_system": "SARS-CoV-2", "details": "treated 24 hours prior to infection; read-out: IC50 in Calu-3"}, "[4]": {"test_system": "SARS-CoV-2", "details": "Vero E6; for IC50: 2 h pre-treatment, 24 h"}, "[5]": {"test_system": "SARS-CoV-2", "details": "virucidal activity; chlorphenamine maleate"}, "[6]": {"test_system": "Vero E6 cells"}, "[7]": {"test_system": "IL1β", "details": "curcumin group"}, "[8]": {"test_system": "IL6", "details": "curcumin group"}, "[9]": {"test_system": "IL-18 and TNF-α", "details": "before and after intervention"}, "[10]": {"test_system": "SARS-CoV-2", "details": "Calu-3"}, "[11]": {"test_system": "Calu-3 cells"}, "[12]": {"test_system": "critically ill patients with COVID-19", "details": "compared to placebo or usual care"}, "[13]": {"test_system": "SARS-CoV-2 Spike pseudotyped virus", "details": "ACE2h HEK293T cells; Control = 1"}, "[14]": {"target": "ACE2 (Homo sapiens, UniProt Q9BYF1)", "sequence (Q9BYF1 18-805)": "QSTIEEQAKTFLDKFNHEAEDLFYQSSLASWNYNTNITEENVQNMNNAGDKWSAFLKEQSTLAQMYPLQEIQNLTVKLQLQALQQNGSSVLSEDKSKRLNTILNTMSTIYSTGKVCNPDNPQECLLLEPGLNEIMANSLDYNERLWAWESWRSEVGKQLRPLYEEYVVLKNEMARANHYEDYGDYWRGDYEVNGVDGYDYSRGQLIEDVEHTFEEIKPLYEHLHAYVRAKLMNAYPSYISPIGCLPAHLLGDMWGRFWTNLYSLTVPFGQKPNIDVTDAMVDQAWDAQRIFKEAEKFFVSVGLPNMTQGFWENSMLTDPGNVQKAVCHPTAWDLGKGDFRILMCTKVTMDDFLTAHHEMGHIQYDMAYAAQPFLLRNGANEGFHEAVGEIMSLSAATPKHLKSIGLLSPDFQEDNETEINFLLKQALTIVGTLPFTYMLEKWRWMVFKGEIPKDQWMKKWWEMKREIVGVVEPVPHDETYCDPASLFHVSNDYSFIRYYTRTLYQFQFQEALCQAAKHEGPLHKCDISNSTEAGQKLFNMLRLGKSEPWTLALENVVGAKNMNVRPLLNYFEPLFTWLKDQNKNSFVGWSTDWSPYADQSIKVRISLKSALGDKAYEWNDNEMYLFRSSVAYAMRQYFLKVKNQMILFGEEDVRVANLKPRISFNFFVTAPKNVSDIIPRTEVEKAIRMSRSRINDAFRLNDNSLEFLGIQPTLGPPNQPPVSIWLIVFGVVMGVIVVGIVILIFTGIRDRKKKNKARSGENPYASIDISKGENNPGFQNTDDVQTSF", "details": "cell membrane chromatography and surface plasmon resonance"}, "[15]": {"test_system": "SARS-CoV-2", "details": "pre-treated Vero-E6; MOI 0.01; 24 hours; p<0.001 vs DMSO"}, "[16]": {"test_system": "SARS-CoV-2", "details": "pre-treated A549^AcE2; MOI 0.01; 24 hours; p<0.001 vs DMSO"}, "[17]": {"test_system": "SARS-CoV-2-Wuhan-Hu-1", "details": "Vero C1008"}, "[18]": {"test_system": "Vero C1008"}, "[19]": {"test_system": "HCoV-OC43", "details": "Vero C1008; dose-dependent"}, "[20]": {"test_system": "SARS-CoV-2/USA/WI1/2020"}, "[21]": {"test_system": "SARS-CoV-2", "details": "Yang et al., 2020"}, "[22]": {"test_system": "SARS-CoV-2", "details": "Vero-E6; for EC50: MOI 0.005"}, "[23]": {"test_system": "SARS-CoV-2", "details": "with increased concentrations; vs DMSO treated group"}, "[24]": {"test_system": "Vero-E6 cells", "details": "read-out: CC50 in"}, "[25]": {"test_system": "human coronavirus (HCoV)-229E", "details": "MRC5 cells"}, "[26]": {"test_system": "SARS-CoV-2", "details": "Vero E6; with reduced cytotoxicity"}, "[27]": {"test_system": "SARS-CoV-2", "details": "10 μM; post-infection treatment; Vero E6; MOI 1"}, "[28]": {"test_system": "OC43", "details": "maximal across all concentrations"}, "[29]": {"test_system": "OC43"}, "[30]": {"test_system": "SARS-CoV-2"}}, "note": "Read-outs that look alike come from different tables or passages of the source."}
{"compound": "C=C1CC[C@H](O)C/C1=C/C=C1\\CCC[C@]2(C)[C@@H]([C@H](C)CCCC(C)(C)O)CC[C@@H]12", "note": "[Calcifediol, calcifediol]", "values": [{"measurement": "Not requiring ICU, n (%)", "setting": "[1]", "result": "49 (98)"}, {"measurement": "Requiring ICU, n (%)", "setting": "[1]", "result": "1 (2)"}]}
{"compound": "CCCCCC(=O)O[C@]1(C(C)=O)CC[C@H]2[C@@H]3CCC4=CC(=O)CC[C@]4(C)[C@H]3CC[C@@]21C", "note": "[Compound 2, 17-hydroxyprogesterone-caproate]", "values": [{"measurement": "IC50", "setting": "[2]", "result": 6.3, "unit": "µM"}, {"measurement": "IC50", "setting": "[3]", "result": 3.87, "unit": "µM"}]}
{"compound": "CN(C)CCC(c1ccc(Cl)cc1)c1ccccn1", "note": "(centres unmarked) [Compound 16, chlorphenamine]", "values": [{"measurement": "Selectivity Index (SI)", "setting": "[4]; MOI 0.004", "result": 3.78}, {"measurement": "IC50", "setting": "[4]; MOI 0.004", "result": 3.14, "unit": "µM"}, {"measurement": "Selectivity Index (SI)", "setting": "[4]; MOI 0.01", "result": 2.94}, {"measurement": "IC50", "setting": "[4]; MOI 0.01", "result": 4.03, "unit": "µM"}, {"measurement": "reduction in the viral load", "setting": "[5]", "result": 99.7, "unit": "%"}, {"measurement": "CC50", "setting": "[6]", "result": 11.9, "unit": "µM"}]}
{"compound": "COc1cc(/C=C/C(=O)CC(=O)/C=C/c2ccc(O)c(OC)c2)ccc1O", "note": "[Compound 21, curcumin]", "values": [{"measurement": "IL1β mRNA expression level, after", "setting": "[7]; 160 mg daily for 14 days", "result": 0.56}, {"measurement": "IL1β mRNA expression level, before", "setting": "[7]; before intervention", "result": 1.01}, {"measurement": "IL6 mRNA expression level, after", "setting": "[8]; 160 mg daily for 14 days", "result": 0.58}, {"measurement": "IL6 mRNA expression level, before", "setting": "[8]; before intervention", "result": 0.98}, {"measurement": "expression level of IL-18 and TNF-α", "setting": "[9]", "result": "no statistically significant differences"}]}
{"compound": "CCOC(=O)C1=C(C)NC(C)=C(C(=O)OC)C1c1cccc(Cl)c1Cl", "note": "(centres unmarked) [Compound 30, felodipine]", "values": [{"measurement": "SI = CC50/EC50", "setting": "[10]", "result": 9784.86}, {"measurement": "CC50", "setting": "[11]", "result": 123, "unit": "µM"}]}
{"compound": "C[C@]12CCC(=O)C=C1CC[C@@H]1[C@@H]2[C@@H](O)C[C@@]2(C)[C@H]1CC[C@]2(O)C(=O)CO", "note": "[Compound 32, hydrocortisone]", "values": [{"measurement": "odds ratio (OR) of mortality", "setting": "[12]", "result": "0.69 (95% CI, 0.43-1.12; P = .13)"}]}
{"compound": "CCOC(=O)N1CCC(=C2c3ccc(Cl)cc3CCc3cccnc32)CC1", "note": "[Compound 42, loratadine]", "values": [{"measurement": "pseudotype entry (mean)", "setting": "[13]", "result": 0.7}, {"measurement": "binding to ACE2", "setting": "[14]", "result": "could bind to ACE2"}]}
{"compound": "CN1CCN(CCCN2c3ccccc3Sc3ccc(C(F)(F)F)cc32)CC1", "note": "[Compound 73, trifluoperazine]", "values": [{"measurement": "SARS-COV-2 replication (vRNA levels)", "setting": "[15]", "result": "successfully blocked"}, {"measurement": "SARS-COV-2 replication (vRNA levels)", "setting": "[16]", "result": "successfully blocked"}]}
{"compound": "C[S+]([O-])CCCCN=C=S", "note": "(centres unmarked) [Compound 139, sulforaphane]", "values": [{"measurement": "SARS-CoV-2-Wuhan-Hu-1 virus-associated cell death", "setting": "[17]; dose-dependent", "result": "effectively inhibited"}, {"measurement": "IC50", "setting": "[17]; drug 1-2 hours before inoculation", "result": 12, "unit": "µM"}, {"measurement": "cytotoxic dose TD50", "setting": "[18]", "result": "73 to 89", "unit": "µM"}, {"measurement": "HCoV-OC43 virus-associated cell death", "setting": "[19]", "result": "effectively inhibited"}, {"measurement": "protein concentration in the bronchoalveolar lavage (BAL)", "setting": "[20]; SFN daily oral gavage from one day prior to inoculation, vs untreated infected controls, P<0.0001", "result": "significantly lower"}, {"measurement": "reduction in viral titers, alveolar fluid", "setting": "[20]; vs untreated controls, P=0.04", "result": 1.15, "unit": "log"}, {"measurement": "reduction in viral lung titers", "setting": "[20]; vs untreated controls, normalized to PoI2Ra", "result": 1.5, "unit": "log"}]}
{"compound": "CC(CN1c2ccccc2Sc2ccccc21)N(C)C", "note": "(centres unmarked) [Compound 144, promethazine]", "values": [{"measurement": "Selectivity Index (SI)", "setting": "[4]; MOI 0.004", "result": 4.62}, {"measurement": "IC50", "setting": "[4]; MOI 0.004", "result": 9.21, "unit": "µM"}, {"measurement": "Selectivity Index (SI)", "setting": "[4]; MOI 0.01", "result": 4.08}, {"measurement": "IC50", "setting": "[4]; MOI 0.01", "result": 10.4, "unit": "µM"}, {"measurement": "SARS-CoV-2 entry inhibition", "setting": "[21]", "result": "SARS-CoV-2 entry inhibitor"}, {"measurement": "CC50", "setting": "[6]; Vero E6, listed as MOI 0.004", "result": "> 42.6", "unit": "µM"}, {"measurement": "CC50", "setting": "[6]; Vero E6, listed as MOI 0.01", "result": "> 42.6", "unit": "µM"}]}
{"compound": "Nc1ccn([C@@H]2O[C@H](CO)[C@@H](O)C2(F)F)c(=O)n1", "note": "[Compound 155, gemcitabine]", "values": [{"measurement": "SI", "setting": "[22]", "result": 33}, {"measurement": "EC50", "setting": "[22]", "result": 1.24, "unit": "µM"}, {"measurement": "positive cells in IFA", "setting": "[23]", "result": "significantly decreased positive cells"}, {"measurement": "CC50", "setting": "[24]", "result": "> 40", "unit": "µM"}]}
{"compound": "Oc1ccc(C=Cc2cc(O)cc(O)c2)cc1", "note": "[Compound 192, resveratrol]", "values": [{"measurement": "EC50", "setting": "[25]", "result": 4.6, "unit": "µM"}, {"measurement": "reduction of the viral titer", "setting": "[25]", "result": 80, "unit": "%"}, {"measurement": "viral titer on SARS-CoV-2", "setting": "[26]", "result": "showed a reduction of the viral titer"}]}
{"compound": "CCN(CC)CCCC(C)Nc1ccnc2cc(Cl)ccc12", "note": "(centres unmarked) [Reference Compound 1, chloroquine]", "values": [{"measurement": "IC50", "setting": "[4]; MOI 0.004", "result": 42, "unit": "µM"}, {"measurement": "IC50", "setting": "[4]; MOI 0.01", "result": 46.8, "unit": "µM"}, {"measurement": "IC50", "setting": "[3]", "result": 69.2, "unit": "µM"}, {"measurement": "EC50", "setting": "[22]", "result": 1.36, "unit": "µM"}, {"measurement": "EC50", "setting": "[25]", "result": 5, "unit": "µM"}, {"measurement": "reduction of the viral titer", "setting": "[25]", "result": 60, "unit": "%"}]}
{"compound": "calcitriol [Compound 142]", "values": [{"measurement": "reduction of SARS-CoV-2 titre", "setting": "[27]", "result": 1.3, "unit": "log 10"}]}
{"compound": "saracatinib [Compound 112]", "values": [{"measurement": "Max % Inhibition of Viral Killing", "setting": "[28]", "result": 22.48, "unit": "%"}, {"measurement": "OC43 viral replication", "setting": "[29]", "result": "inhibition also observed"}, {"measurement": "SARS-CoV-2 viral replication", "setting": "[30]", "result": "inhibition also observed"}]}
